{"source": "patent US6777396B2", "about": "“Feed for livestock” (Ajinomoto Co., Inc., priority 2000, dated 2004)", "key": {"weaned barrows [1]": {"tested_on": "weaned barrows", "experiment": "Example 3: feeding trial in weaned piglets, glutamine and/or glutamic acid added to starter feed", "format": "in vivo", "from_the_text": "120 weaned barrows were used and divided into 4 groups (30 animals for each group, 6 replications with 5 animals per replication), namely a control group (C), a glutamine alone administration group (GLN), a glutamic acid alone administration group (GLU) and a glutamine+glutamic acid mixture administration group (GLN+GLU). Piglets were weaned at 17 days of age in average. Also, the GLN group was provided with an experimental feed prepared by adding crystalline glutamine at 1.2% per feed weight to the starter feed, the GLU group with an experimental feed prepared by adding crystalline glutamic acid at 1.2% per feed weight to the starter feed, and the GLN+GLU group with an experimental feed prepared by adding glutamine and glutamic acid at 0.12% and 1.08%, respectively, per feed weight to the starter feed. After two weeks passed, a common feed was fed to all groups. Body weight and residual feed weight were measured to calculate feed intake, body weight gain and feed efficiency on the 14th and 21st days after the weaning."}, "Weaned piglets": {"tested_on": "Weaned piglets", "experiment": "Example 1: feeding trial in weaned piglets, nucleic acid and/or glutamine added to starter feed", "format": "in vivo", "from_the_text": "Weaned piglets, 72 barrows and 72 gilts were used and divided into 4 groups (36 animals for each group, 6 replications with 6 animals per replication), namely a control group (C), a nucleic acid alone administration group (N), a glutamine alone administration group (G) and a nucleic acid+glutamine mixture administration group (N+G). Piglets were weaned at 17 days of age in average. Also, the N group was provided with an experimental feed prepared by adding commercially available ribonucleic acid extracted from beer yeast (manufactured by Kirin Brewery CO., LTD.) at 0.8% per feed weight to the starter feed, the G group with an experimental feed prepared by adding crystalline glutamine at 1.2% per feed weight to the starter feed, and the N+G group with an experimental feed prepared by adding ribonucleic acid and glutamine at 0.8% and 1.2%, respectively, per feed weight to the starter feed. After two weeks passed, a common diet was fed to all groups. Body weight and residual feed weight were measured to calculate feed intake, body weight gain and feed efficiency on the 7th, 14th, 21st and 28th days after the weaning."}, "Small Intestinal Villi": {"tested_on": "Small Intestinal Villi", "experiment": "Example 4: effect on recovery of small intestinal villi (villi length, crypt thickness by optical microscope)", "format": "in vivo, piglets", "details": "7th day after weaning", "from_the_text": "24 weaned barrows were used and divided into 4 groups (6 animals for each group), namely a control group (C), a nucleic acid alone administration group (N), a glutamic acid alone administration group (G) and a nucleic acid+glutamic acid mixture administration group (N+G). Piglets were weaned at 17 days of age in average. Also, the N group was provided with an experimental feed prepared by adding commercially available ribonucleic acid extracted from beer yeast (manufactured by Kirin Brewery CO., LTD.) at 0.8% per feed weight to the starter feed, the G group with an experimental feed prepared by adding crystalline glutamic acid at 1.2% per feed weight to the starter feed, and the N+G group with an experimental feed prepared by adding ribonucleic acid and glutamic acid at 0.12% of and 1.08%, respectively, per feed weight to the starter feed. On the 7th day after weaning, all piglets were sacrificed to collect the small intestines. After the preparation of tissue sections from the collected small intestines by a general procedure, the length of villi and the thickness of crypt were measured using optical microscope."}, "weaned barrows [2]": {"tested_on": "weaned barrows", "experiment": "Example 2: feeding trial in weaned piglets, nucleic acid and/or glutamic acid added to starter feed", "format": "in vivo", "from_the_text": "120 weaned barrows were used and divided into 4 groups (30 animals for each group, 6 replications with 5 animals per replication), namely a control group (C), a nucleic acid alone administration group (N), a glutamic acid alone administration group (G) and a nucleic acid+glutamic acid mixture administration group (N+G). Piglets were weaned at 17 days of age in average. Also, the N group was provided with an experimental feed prepared by adding commercially available ribonucleic acid extracted from beer yeast (manufactured by Kirin Brewery CO., LTD.) at 0.8% per feed weight to the starter feed, the G group with an experimental feed prepared by adding crystalline glutamic acid at 1.2% per feed weight to the starter feed, and the N+G group with an experimental feed prepared by adding ribonucleic acid and glutamic acid at 0.12% and 1.08%, respectively, per feed weight to the starter feed. Body weight and residual feed weight were measured to calculate feed intake, body weight gain and feed efficiency on the 7th and 14th days after the weaning."}, "[3]": {"details": "8 to 14 days after weaning, not statistically significant"}}, "note": "Marks after values point to notes of the source that are not given here.", "data": [{"molecule": "N[C@@H](CCC(=O)O)C(=O)O", "note": "[G, glutamic acid]", "values": [{"measurement": "Average feed intake", "setting": "weaned barrows [1]; 1 to 14 days (test feed)", "value": 0.225, "unit": "kg/day"}, {"measurement": "Body weight gain", "setting": "weaned barrows [1]; 1 to 14 days (test feed)", "value": 0.156, "unit": "kg/day"}, {"measurement": "Feed efficiency", "setting": "weaned barrows [1]; 1 to 14 days (test feed)", "value": 1.453, "unit": "Feed kg/Gain kg"}, {"measurement": "Average feed intake", "setting": "weaned barrows [1]; 15 to 21 days (common feed)", "value": 0.459, "unit": "kg/day"}, {"measurement": "Body weight gain", "setting": "weaned barrows [1]; 15 to 21 days (common feed)", "value": 0.342, "unit": "kg/day"}, {"measurement": "Feed efficiency", "setting": "weaned barrows [1]; 15 to 21 days (common feed)", "value": 1.333, "unit": "Feed kg/Gain kg"}]}, {"molecule": "NC(=O)CC[C@H](N)C(=O)O", "note": "[G, glutamine]", "values": [{"measurement": "Average feed intake", "setting": "weaned barrows [1]; 1 to 14 days (test feed)", "value": 0.211, "unit": "kg/day"}, {"measurement": "Body weight gain", "setting": "weaned barrows [1]; 1 to 14 days (test feed)", "value": 0.147, "unit": "kg/day"}, {"measurement": "Feed efficiency", "setting": "weaned barrows [1]; 1 to 14 days (test feed)", "value": 1.439, "unit": "Feed kg/Gain kg"}, {"measurement": "Average feed intake", "setting": "weaned barrows [1]; 15 to 21 days (common feed)", "value": 0.446, "unit": "kg/day"}, {"measurement": "Body weight gain", "setting": "weaned barrows [1]; 15 to 21 days (common feed)", "value": 0.351, "unit": "kg/day"}, {"measurement": "Feed efficiency", "setting": "weaned barrows [1]; 15 to 21 days (common feed)", "value": 1.280, "unit": "Feed kg/Gain kg"}]}, {"molecule": "ribonucleic acid", "values": [{"measurement": "Average feed intake", "setting": "Weaned piglets; 0 to 7 days", "value": 0.159, "unit": "kg/day"}, {"measurement": "Body weight gain", "setting": "Weaned piglets; 0 to 7 days", "value": 0.116, "unit": "kg/day"}, {"measurement": "Feed efficiency", "setting": "Weaned piglets; 0 to 7 days", "value": 1.392, "unit": "Feed kg/Gain kg"}, {"measurement": "Average feed intake", "setting": "Weaned piglets; 0 to 28 days", "value": 0.463, "unit": "kg/day"}, {"measurement": "Body weight gain", "setting": "Weaned piglets; 0 to 28 days", "value": 0.281, "unit": "kg/day"}, {"measurement": "Feed efficiency", "setting": "Weaned piglets; 0 to 28 days", "value": "1.648^bc Feed kg/Gain kg"}, {"measurement": "Average feed intake", "setting": "Weaned piglets; 7 to 14 days", "value": 0.377, "unit": "kg/day"}, {"measurement": "Body weight gain", "setting": "Weaned piglets; 7 to 14 days", "value": 0.301, "unit": "kg/day"}, {"measurement": "Feed efficiency", "setting": "Weaned piglets; 7 to 14 days", "value": 1.256, "unit": "Feed kg/Gain kg"}, {"measurement": "Average feed intake", "setting": "Weaned piglets; 14 to 21 days", "value": 0.525, "unit": "kg/day"}, {"measurement": "Body weight gain", "setting": "Weaned piglets; 14 to 21 days", "value": 0.274, "unit": "kg/day"}, {"measurement": "Feed efficiency", "setting": "Weaned piglets; 14 to 21 days", "value": 1.945, "unit": "Feed kg/Gain kg"}, {"measurement": "Average feed intake", "setting": "Weaned piglets; 21 to 28 days", "value": 0.797, "unit": "kg/day"}, {"measurement": "Body weight gain", "setting": "Weaned piglets; 21 to 28 days", "value": 0.432, "unit": "kg/day"}, {"measurement": "Feed efficiency", "setting": "Weaned piglets; 21 to 28 days", "value": 1.852, "unit": "Feed kg/Gain kg"}, {"measurement": "Average body weight", "setting": "Weaned piglets; 7 days after weaning, test feed days 0-14", "value": 6.17, "unit": "kg"}, {"measurement": "Average body weight", "setting": "Weaned piglets; 14 days after weaning, test feed days 0-14", "value": 8.28, "unit": "kg"}, {"measurement": "Average body weight", "setting": "Weaned piglets; 21 days after weaning, common diet after day 14", "value": 10.20, "unit": "kg"}, {"measurement": "Average body weight", "setting": "Weaned piglets; 28 days after weaning, common diet after day 14", "value": 13.23, "unit": "kg"}, {"measurement": "Average body weight", "setting": "Weaned piglets; at the time of weaning (baseline)", "value": 5.36, "unit": "kg"}, {"measurement": "improvement in feed efficiency compared to the C group (in words)", "setting": "Weaned piglets; whole test period (0 to 28 days after weaning)", "value": "slight improvement in feed efficiency"}, {"measurement": "Crypt thickness", "setting": "Small Intestinal Villi; Duodenum", "value": "130^ab μm"}, {"measurement": "Villi length", "setting": "Small Intestinal Villi; Duodenum", "value": "385^b μm"}, {"measurement": "Crypt thickness", "setting": "Small Intestinal Villi; Ileum", "value": "128^b μm"}, {"measurement": "Villi length", "setting": "Small Intestinal Villi; Ileum", "value": "344^ab μm"}, {"measurement": "Crypt thickness", "setting": "Small Intestinal Villi; Jejunum", "value": "136^b μm"}, {"measurement": "Villi length", "setting": "Small Intestinal Villi; Jejunum", "value": "406^b μm"}, {"measurement": "villi length compared between groups (in words)", "setting": "Small Intestinal Villi; duodenum, N and G vs C, N+G vs N and G", "value": "significantly longer"}, {"measurement": "crypt thickness compared with the C and G group (in words)", "setting": "Small Intestinal Villi; jejunum and ileum", "value": "significantly thicker"}, {"measurement": "Average feed intake", "setting": "weaned barrows [2]; 0 to 7 days", "value": "0.151^ab kg/day"}, {"measurement": "Body weight gain", "setting": "weaned barrows [2]; 0 to 7 days", "value": "0.102^b kg/day"}, {"measurement": "Feed efficiency", "setting": "weaned barrows [2]; 0 to 7 days", "value": 1.490, "unit": "Feed kg/Gain kg"}, {"measurement": "Average feed intake", "setting": "weaned barrows [2]; 8 to 14 days", "value": 0.291, "unit": "kg/day"}, {"measurement": "Body weight gain", "setting": "weaned barrows [2]; 8 to 14 days", "value": 0.234, "unit": "kg/day"}, {"measurement": "Feed efficiency", "setting": "weaned barrows [2]; 8 to 14 days", "value": 1.252, "unit": "Feed kg/Gain kg"}, {"measurement": "body weight gain per day compared with C group (in words)", "setting": "weaned barrows [2]; [3]", "value": "further increased"}, {"measurement": "feed efficiency compared to the C group and G group (in words)", "setting": "weaned barrows [2]; [3]", "value": "tendency to be improved"}, {"measurement": "body weight gain per day compared with the other groups (in words)", "setting": "weaned barrows [2]; 7 days just after weaning", "value": "not different from the C group"}]}]}
